The record followed here is patent US20240336654A1, “ANTIMICROBIAL PEPTIDOMIMETICS” (SPEXIS AG, priority 2021, published 2024).

Type in all cases: cell-based
Data set [1] concerns Escherichia coli ATCC 25922. The settings on record: ATCC 25922. In outline: (§1)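 The MIC is the lowest peptide concentration, in μg/mL, with no visible growth after 18-20 h incubation at 35 °C. Serial two-fold peptide dilutions in water with 0.002% P-80 final were added to bacteria in cation-adjusted MHII broth, about 5×10^5 CFU/mL, following modified CLSI microdilution.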
Data set [2] concerns Escherichia coli MCR-1 Af 45. To be noted: MCR-1 Af 45. Put shortly:
as §1

In data set [3] the test system is Klebsiella pneumoniae SSI3010. The settings on record: SSI3010. Put shortly:
as §1

The test system of data set [4] is human red blood cells (hRBC). To be noted: red cells of human, 1 h, 200 μg/mL. Put shortly: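 Peptides at 200 μg/mL incubated 1 h at 37 °C with 20% (v/v) washed human RBC, shaking. Hemolysis from supernatant OD540, expressed as percent of 2.5% Triton X-100 lysis, with PBS as 0%.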

Where a SMILES comes first, the peptide text is derived from it. Bridges are numbered along the chain shown (N, C = ends). [ ]: non-standard residue; d: D form. The star is where a group is joined. Val(Nα-amidino) = CC(C)[C@H](NC(=N)N)C(=O)*; Hyp = O=C(O)[C@@H]1C[C@@H](O)CN1; Cit = NC(=O)NCCC[C@H](N)C(=O)O; Pen = CC(C)(S)[C@H](N)C(=O)O; dDab = NCC[C@@H](N)C(=O)O; hSer = N[C@@H](CCO)C(=O)O; Orn = NCCC[C@H](N)C(=O)O; Dab = NCC[C@H](N)C(=O)O

With `CC[C@H](C)[C@H](NC(=O)[C@@H]1C[C@@H](O)CN1C(=O)[C@@H](NC(=N)N)C(C)C)C(=O)N[C@@H]1C(=O)N[C@@H](Cc2ccc(O)cc2)C(=O)N[C@@H](CCO)C(=O)N[C@@H](CC(N)=O)C(=O)N[C@@H](CCCNC(=N)N)C(=O)N[C@@H](CCN)C(=O)N[C@@H]([C@@H](C)O)C(=O)N[C@H](CCN)C(=O)N[C@@H](CCCCN)C(=O)N[C@@H](CCN)C(=O)N[C@@H](CCN)C(=O)N[C@H](C(=O)N[C@@H](Cc2ccc(O)cc2)C(=O)O)CSSC1(C)C` [Example 117, Gua-Val-Hyp-Ile-Pen-Tyr-Hse-Asn-Arg-Dab-Thr-^DDab-Lys-Dab-Dab-Cys-Tyr] ({Val(Nα-amidino)}-[Hyp]I[Pen]Y[hSer]NR[Dab]T[dDab]K[Dab][Dab]CY-OH; disulfide 3-14), the “Escherichia coli ATCC 25922 MIC” value in data set [1] amounted to 0.125 µg/mL. In addition, the “Escherichia coli MCR-1 Af45 MIC” value in data set [2] was found to be 0.0625 µg/mL. Further, the “Klebsiella pneumoniae SSI3010 MIC” value in data set [3] is 0.125 µg/mL. For the same molecule, in data set [4], the “Hemolysis at 0.2 g/L” value is less than 1%.
Consider `CC[C@H](C)[C@H](NC(=O)[C@@H]1C[C@@H](O)CN1C(=O)[C@@H](NC(=N)N)C(C)C)C(=O)N[C@H]1CCNC(=O)CC[C@@H](C(=O)N[C@@H](Cc2ccc(O)cc2)C(=O)O)NC(=O)[C@H](CCN)NC(=O)[C@H](CCN)NC(=O)[C@H](CCCCN)NC(=O)[C@@H](CCN)NC(=O)[C@H]([C@@H](C)O)NC(=O)[C@H](CCN)NC(=O)[C@H](CCCNC(=N)N)NC(=O)[C@H](CC(N)=O)NC(=O)[C@H](CCO)NC(=O)[C@H](Cc2ccc(O)cc2)NC1=O` [Example 118, Gua-Val-Hyp-Ile-Dab-Tyr-Hse-Asn-Arg-Dab-Thr-^DDab-Lys-Dab-Dab-Glu-Tyr] ({Val(Nα-amidino)}-[Hyp]I[Dab]Y[hSer]NR[Dab]T[dDab]K[Dab][Dab]EY-OH; lactam 3-14), for which the “Escherichia coli ATCC 25922 MIC” value in data set [1] was found to be 0.0625 µg/mL. Also, in data set [2], the “Escherichia coli MCR-1 Af45 MIC” value turned out to be 0.0625 µg/mL. Further, the “Klebsiella pneumoniae SSI3010 MIC” value in data set [3] was 0.125 µg/mL. Moreover, the “Hemolysis at 0.2 g/L” value in data set [4] was less than 1%.
Regarding `CC[C@H](C)[C@H](NC(=O)[C@@H]1C[C@@H](O)CN1C(=O)[C@@H](NC(=N)N)C(C)C)C(=O)N[C@H]1CCNC(=O)CC[C@@H](C(=O)N[C@@H](Cc2ccc(O)cc2)C(=O)O)NC(=O)[C@H](CCN)NC(=O)[C@H](CCN)NC(=O)[C@H](CCCN)NC(=O)[C@@H](CCN)NC(=O)[C@H]([C@@H](C)O)NC(=O)[C@H](CCN)NC(=O)[C@H](CCCNC(=N)N)NC(=O)[C@H](CC(N)=O)NC(=O)[C@H]([C@@H](C)O)NC(=O)[C@H](Cc2ccc(O)cc2)NC1=O` [Example 119, Gua-Val-Hyp-Ile-Dab-Tyr-Thr-Asn-Arg-Dab-Thr-^DDab-Orn-Dab-Dab-Glu-Tyr] ({Val(Nα-amidino)}-[Hyp]I[Dab]YTNR[Dab]T[dDab][Orn][Dab][Dab]EY-OH; lactam 3-14), the “Escherichia coli ATCC 25922 MIC” value in data set [1] came out at 0.0625 µg/mL. In data set [2], the “Escherichia coli MCR-1 Af45 MIC” value came to 0.0625 µg/mL. The “Klebsiella pneumoniae SSI3010 MIC” value in data set [3] was 0.125 µg/mL. In data set [4], the “Hemolysis at 0.2 g/L” value is recorded as less than 1%.
As for `CC[C@H](C)[C@H](NC(=O)[C@@H]1C[C@@H](O)CN1C(=O)[C@@H](NC(=N)N)C(C)C)C(=O)N[C@@H]1C(=O)N[C@@H](Cc2ccc(O)cc2)C(=O)N[C@@H](CCN)C(=O)N[C@@H](CC(N)=O)C(=O)N[C@@H](CCCNC(=N)N)C(=O)N[C@@H](CCN)C(=O)N[C@@H]([C@@H](C)O)C(=O)N[C@H](CCN)C(=O)N[C@@H](CCN)C(=O)N[C@@H]([C@@H](C)O)C(=O)N[C@@H](CCN)C(=O)N[C@H](C(=O)N[C@@H](Cc2ccc(O)cc2)C(=O)O)CSSC1(C)C` [Example 120, Gua-Val-Hyp-Ile-Pen-Tyr-Dab-Asn-Arg-Dab-Thr-^DDab-Dab-Thr-Dab-Cys-Tyr] ({Val(Nα-amidino)}-[Hyp]I[Pen]Y[Dab]NR[Dab]T[dDab][Dab]T[Dab]CY-OH; disulfide 3-14), the “Escherichia coli ATCC 25922 MIC” value in data set [1] stood at 0.125 µg/mL. Moreover, the “Escherichia coli MCR-1 Af45 MIC” value in data set [2] came to 0.0625 µg/mL. Besides, in data set [3], the “Klebsiella pneumoniae SSI3010 MIC” value is 0.125 µg/mL. Besides, the “Hemolysis at 0.2 g/L” value in data set [4] is on record as less than 1%.
`CC[C@H](C)[C@H](NC(=O)[C@@H]1C[C@@H](O)CN1C(=O)[C@@H](NC(=N)N)C(C)C)C(=O)N[C@@H]1C(=O)N[C@@H](Cc2ccc(O)cc2)C(=O)N[C@@H](CCN)C(=O)N[C@@H](CC(N)=O)C(=O)N[C@@H](CCCNC(=N)N)C(=O)N[C@@H](CCN)C(=O)N[C@@H]([C@@H](C)O)C(=O)N[C@H](CCN)C(=O)N[C@@H](CCCN)C(=O)N[C@@H]([C@@H](C)O)C(=O)N[C@@H](CCN)C(=O)N[C@H](C(=O)N[C@@H](Cc2ccc(O)cc2)C(=O)O)CSSC1(C)C` [Example 121, Gua-Val-Hyp-Ile-Pen-Tyr-Dab-Asn-Arg-Dab-Thr-^DDab-Orn-Thr-Dab-Cys-Tyr] ({Val(Nα-amidino)}-[Hyp]I[Pen]Y[Dab]NR[Dab]T[dDab][Orn]T[Dab]CY-OH; disulfide 3-14): the “Escherichia coli ATCC 25922 MIC” value in data set [1] is 0.0625 µg/mL. In addition, in data set [2], the “Escherichia coli MCR-1 Af45 MIC” value was determined as 0.0625 µg/mL. For the same molecule, the “Klebsiella pneumoniae SSI3010 MIC” value in data set [3] is 0.125 µg/mL. Moreover, in data set [4], the “Hemolysis at 0.2 g/L” value is less than 1%.
`CC[C@H](C)[C@H](NC(=O)[C@@H]1C[C@@H](O)CN1C(=O)[C@@H](NC(=N)N)C(C)C)C(=O)N[C@@H]1C(=O)N[C@@H](Cc2ccc(O)cc2)C(=O)N[C@@H](CCCNC(N)=O)C(=O)N[C@@H](CC(N)=O)C(=O)N[C@@H](CCCNC(=N)N)C(=O)N[C@@H](CCN)C(=O)N[C@@H]([C@@H](C)O)C(=O)N[C@H](CCN)C(=O)N[C@@H](CO)C(=O)N[C@@H](CCN)C(=O)N[C@@H](CCN)C(=O)N[C@H](C(=O)N[C@@H](Cc2ccc(O)cc2)C(=O)O)CSSC1(C)C` [Example 122, Gua-Val-Hyp-Ile-Pen-Tyr-Cit-Asn-Arg-Dab-Thr-^DDab-Ser-Dab-Dab-Cys-Tyr] ({Val(Nα-amidino)}-[Hyp]I[Pen]Y[Cit]NR[Dab]T[dDab]S[Dab][Dab]CY-OH; disulfide 3-14): the “Escherichia coli ATCC 25922 MIC” value in data set [1] came to 0.125 µg/mL. For the same molecule, the “Escherichia coli MCR-1 Af45 MIC” value in data set [2] turned out to be 0.25 µg/mL. In addition, the “Klebsiella pneumoniae SSI3010 MIC” value in data set [3] is 0.25 µg/mL. For the same molecule, the “Hemolysis at 0.2 g/L” value in data set [4] was less than 1%.
`CC[C@H](C)[C@H](NC(=O)[C@@H]1C[C@@H](O)CN1C(=O)[C@@H](NC(=N)N)C(C)C)C(=O)N[C@@H]1C(=O)N[C@@H](Cc2ccc(O)cc2)C(=O)N[C@@H]([C@@H](C)O)C(=O)N[C@@H](CC(N)=O)C(=O)N[C@@H](CCCNC(=N)N)C(=O)N[C@@H](CCN)C(=O)N[C@@H]([C@@H](C)O)C(=O)N[C@H](CCN)C(=O)N[C@@H](CCN)C(=O)N[C@@H](CCN)C(=O)N[C@@H](CCN)C(=O)N[C@H](C(=O)N[C@@H](Cc2ccc(O)cc2)C(=O)O)CSSC1(C)C` [Example 123, Gua-Val-Hyp-Ile-Pen-Tyr-Thr-Asn-Arg-Dab-Thr-^DDab-Dab-Dab-Dab-Cys-Tyr] ({Val(Nα-amidino)}-[Hyp]I[Pen]YTNR[Dab]T[dDab][Dab][Dab][Dab]CY-OH; disulfide 3-14): the “Escherichia coli ATCC 25922 MIC” value in data set [1] is 0.0625 µg/mL. Moreover, in data set [2], the “Escherichia coli MCR-1 Af45 MIC” value turned out to be 0.03125 µg/mL. Also, the “Klebsiella pneumoniae SSI3010 MIC” value in data set [3] stood at 0.0625 µg/mL. In data set [4], the “Hemolysis at 0.2 g/L” value is less than 1%.
`CC[C@H](C)[C@H](NC(=O)[C@@H]1C[C@@H](O)CN1C(=O)[C@@H](NC(=N)N)C(C)C)C(=O)N[C@@H]1C(=O)N[C@@H](Cc2ccc(O)cc2)C(=O)N[C@@H]([C@@H](C)O)C(=O)N[C@@H](CC(N)=O)C(=O)N[C@@H](CCCNC(=N)N)C(=O)N[C@@H](CCN)C(=O)N[C@@H]([C@@H](C)O)C(=O)N[C@H](CCN)C(=O)N[C@@H](CCCN)C(=O)N[C@@H](CCN)C(=O)N[C@@H](CCN)C(=O)N[C@H](C(=O)N[C@@H](Cc2ccc(O)cc2)C(=O)O)CSSC1(C)C` [Example 124, Gua-Val-Hyp-Ile-Pen-Tyr-Thr-Asn-Arg-Dab-Thr-^DDab-Orn-Dab-Dab-Cys-Tyr] ({Val(Nα-amidino)}-[Hyp]I[Pen]YTNR[Dab]T[dDab][Orn][Dab][Dab]CY-OH; disulfide 3-14): in data set [1], the “Escherichia coli ATCC 25922 MIC” value stood at 0.03125 µg/mL. For the same molecule, the “Escherichia coli MCR-1 Af45 MIC” value in data set [2] is 0.03125 µg/mL. The “Klebsiella pneumoniae SSI3010 MIC” value in data set [3] came out at 0.125 µg/mL. The “Hemolysis at 0.2 g/L” value in data set [4] was less than 1%.
`CC[C@H](C)[C@H](NC(=O)[C@@H]1C[C@@H](O)CN1C(=O)[C@@H](NC(=N)N)C(C)C)C(=O)N[C@@H]1C(=O)N[C@@H](Cc2ccc(O)cc2)C(=O)N[C@@H](CO)C(=O)N[C@@H](CC(N)=O)C(=O)N[C@@H](CCCNC(=N)N)C(=O)N[C@@H](CCN)C(=O)N[C@@H]([C@@H](C)O)C(=O)N[C@H](CCN)C(=O)N[C@@H](CCN)C(=O)N[C@@H](CCN)C(=O)N[C@@H](CCN)C(=O)N[C@H](C(=O)N[C@@H](Cc2ccc(O)cc2)C(=O)O)CSSC1(C)C` [Example 125, Gua-Val-Hyp-Ile-Pen-Tyr-Ser-Asn-Arg-Dab-Thr-^DDab-Dab-Dab-Dab-Cys-Tyr] ({Val(Nα-amidino)}-[Hyp]I[Pen]YSNR[Dab]T[dDab][Dab][Dab][Dab]CY-OH; disulfide 3-14): in data set [1], the “Escherichia coli ATCC 25922 MIC” value came to 0.125 µg/mL. In addition, in data set [2], the “Escherichia coli MCR-1 Af45 MIC” value worked out at 0.03125 µg/mL. For the same molecule, the “Klebsiella pneumoniae SSI3010 MIC” value in data set [3] stood at 0.125 µg/mL. The “Hemolysis at 0.2 g/L” value in data set [4] is less than 1%.
